Tests used:
Assay type in all cases: tissue-based
[1] = target: 5-hydroxytryptamine receptor 4 (Rattus norvegicus, UniProt Q62758); assay: Binding affinity against 5-hydroxytryptamine 4 receptor using [3H]GR-113808 as radioligand in rat striatum
D(2) dopamine receptor = D(2) dopamine receptor (Rattus norvegicus, UniProt P61169); assay: Binding affinity against Dopamine receptor D2 using [3H]spiperone as radioligand in rat striatum
[2] = target: T1, Serotonin 3 (5-HT3) receptor (Rattus norvegicus, UniProt P35563+Q9JJ16); assay: Binding affinity against 5-hydroxytryptamine 3 receptor using [3H]BRL-43694 as radioligand in rat posterior cortex
T1 sequence (P35563 whole entry): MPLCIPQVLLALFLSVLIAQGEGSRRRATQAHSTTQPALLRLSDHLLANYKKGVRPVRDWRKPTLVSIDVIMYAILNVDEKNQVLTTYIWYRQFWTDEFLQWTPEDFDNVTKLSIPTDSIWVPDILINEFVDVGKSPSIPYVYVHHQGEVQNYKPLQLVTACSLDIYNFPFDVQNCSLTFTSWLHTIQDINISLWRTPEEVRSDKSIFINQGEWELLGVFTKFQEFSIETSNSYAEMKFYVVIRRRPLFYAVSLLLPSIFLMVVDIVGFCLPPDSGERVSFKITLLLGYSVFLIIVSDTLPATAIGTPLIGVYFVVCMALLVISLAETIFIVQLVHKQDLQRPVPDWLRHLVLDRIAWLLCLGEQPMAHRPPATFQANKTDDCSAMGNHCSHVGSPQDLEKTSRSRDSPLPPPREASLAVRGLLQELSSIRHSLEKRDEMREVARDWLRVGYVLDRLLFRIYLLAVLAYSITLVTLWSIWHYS
T1 sequence (Q9JJ16 whole entry): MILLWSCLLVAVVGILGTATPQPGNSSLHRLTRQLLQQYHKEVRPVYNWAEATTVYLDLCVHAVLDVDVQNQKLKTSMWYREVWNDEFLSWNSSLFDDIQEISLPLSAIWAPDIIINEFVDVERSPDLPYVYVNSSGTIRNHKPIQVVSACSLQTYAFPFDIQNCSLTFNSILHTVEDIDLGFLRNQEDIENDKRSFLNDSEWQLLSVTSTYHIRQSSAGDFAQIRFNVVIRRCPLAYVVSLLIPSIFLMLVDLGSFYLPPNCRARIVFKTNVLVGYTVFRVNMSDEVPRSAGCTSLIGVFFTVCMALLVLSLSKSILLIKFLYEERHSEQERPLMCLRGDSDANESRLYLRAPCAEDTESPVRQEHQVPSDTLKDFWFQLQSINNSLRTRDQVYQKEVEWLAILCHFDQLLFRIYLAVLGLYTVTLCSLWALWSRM

D(2) dopamine receptor, sequence (P61169 whole entry): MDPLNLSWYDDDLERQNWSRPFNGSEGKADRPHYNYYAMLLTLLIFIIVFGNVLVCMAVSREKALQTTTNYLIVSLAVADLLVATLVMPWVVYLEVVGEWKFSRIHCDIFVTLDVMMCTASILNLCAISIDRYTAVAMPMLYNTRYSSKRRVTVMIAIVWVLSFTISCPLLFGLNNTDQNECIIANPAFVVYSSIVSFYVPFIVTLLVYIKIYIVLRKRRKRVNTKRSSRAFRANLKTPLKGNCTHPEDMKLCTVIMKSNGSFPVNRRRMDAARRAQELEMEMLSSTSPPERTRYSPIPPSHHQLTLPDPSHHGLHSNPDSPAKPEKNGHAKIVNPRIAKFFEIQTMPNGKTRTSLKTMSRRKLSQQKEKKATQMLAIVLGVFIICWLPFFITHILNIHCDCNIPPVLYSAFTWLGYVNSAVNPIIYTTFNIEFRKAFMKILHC
5-hydroxytryptamine receptor 4, sequence (Q62758 whole entry): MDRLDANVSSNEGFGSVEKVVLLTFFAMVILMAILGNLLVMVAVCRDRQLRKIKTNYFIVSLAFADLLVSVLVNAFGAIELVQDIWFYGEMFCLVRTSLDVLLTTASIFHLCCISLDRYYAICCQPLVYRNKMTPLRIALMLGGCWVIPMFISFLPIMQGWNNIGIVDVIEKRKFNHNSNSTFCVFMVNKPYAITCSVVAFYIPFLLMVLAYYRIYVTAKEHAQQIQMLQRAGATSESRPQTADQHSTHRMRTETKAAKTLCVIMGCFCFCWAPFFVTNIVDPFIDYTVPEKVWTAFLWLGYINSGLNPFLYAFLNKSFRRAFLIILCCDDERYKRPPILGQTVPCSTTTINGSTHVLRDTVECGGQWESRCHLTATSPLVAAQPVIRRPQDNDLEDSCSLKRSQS

Row | Compound | Ki [1] [nM] | Ki (D(2) dopamine receptor) [nM] | Ki [2] [nM]
1 | COc1cc(N)c(Cl)cc1C(=O)N[C@@H]1CN2CCC1CC2 | 383 | > 1000 | 
2 | COc1cc(N)c(Cl)cc1C(=O)NC1CC2CCC(C1)N2C (stereo in doubt; 5) | > 1000 | > 1000 | 41.8
3 | COc1cc(N)c(Cl)cc1C(=O)NC1CCN(Cc2ccccc2)CC1 [CLEBOPRIDE] | 104 |  | > 1000
4 | Nc1cc2c(cc1Cl)C(=O)NC1CCN(CCOCCO2)CC1 | 29.7 | > 1000 | 53.2
5 | COc1cc(N)c(Cl)cc1C(=O)NC1CCN(C)CC1 | 832 | > 1000 | 267
6 | COc1cc(N)c(Cl)cc1C(=O)NC1CC2CCC(C1)N2Cc1ccccc1 (centres undefined) | 233 | 0.28 | > 1000
7 | COc1cc(N)c(Cl)cc1C(=O)NC1CC2CCC(C1)N2C (stereo in doubt) | 48 | > 1000 | 0.8

From ChEMBL document CHEMBL1149999, “Synthesis and pharmacological activity of a macrocyclic benzamide” (Bioorg Med Chem Lett, 1995)
